Source: paper PMC6131539, “Behavioral Effects of a Potential Novel TAAR1 Antagonist” (Frontiers in Pharmacology, 2018)

Tests used:
TAAR1-KO mice [1] = assay: Amphetamine-induced locomotor activity, co-injection, TAAR1-KO mice; assay type: in vivo; settings: 15 mg/kg co-injected with amphetamine 2 mg/kg, p = 0.004
Method: (§1) The Taarl^-/- (TAAR1-KO) mice were obtained from Lundbeck ([Wolinsky et al., 2007]). All wild type (WT) and TAAR1-KO mice used for experiments were generated from TAAR1-KO heterozygous mice in a C57BL/6J x 129S1/Sv mixed background.
(§2) Experimentally naïve mice, of at least 12 weeks of age, were used for all behavioral experiments. The mice were randomly assigned to treatment or control groups, balanced by sex and weight. Locomotor activity was assessed using the automated locomotor analysis monitors (Omnitech Electronics, Columbus, OH, United States). The apparatus included four open field monitors. Each Open Field monitor consisted of sets of 16 light beams arrayed in the horizontal X and Y axes. The hardware detected beams broken by the animal, which allowed the software to determine the location of the mouse in the cage. Total distance covered by mice was used to characterize locomotor activity of the animals. The monitors were divided into four compartments (20 cm × 20 cm). Animals were tested individually for defined periods with 5-min intervals. The mice were first weighed and then placed into the apparatus, allowing for 30 min habituation. Following the habituation, the mice were removed from the al apparatus and injected with drugs (see below for administration) or vehicle and returned immediately to the locomotor chamber.

TAAR1-KO mice [2] = assay: Cocaine-induced locomotor activity, co-injection, TAAR1-KO mice; assay type: in vivo; settings: 5, 15 and 25 mg/kg co-injected with cocaine 10 mg/kg
Method: as §1
as §2, with “[…] The locomotor activity was then measured” for “Following the habituation, the mice were removed from the al apparatus and injected with drugs (see below”, “additional 1 h. […]” for “administration) or vehicle and returned immediately to the locomotor chamber.”
The locomotor activity was assessed for 60 min following the injection. […]

TAAR1-KO mice [3] = assay: Stereotypic counts, co-injection with amphetamine, TAAR1-KO mice; assay type: in vivo; settings: only 15 mg/kg, co-injected with amphetamine 2 mg/kg
Method: as §2, with “[…] The locomotor activity was then measured” for “Following the habituation, the mice were removed from the al apparatus and injected with drugs (see below”, “additional 1 h. […]” for “administration) or vehicle and returned immediately to the locomotor chamber.”
Supplementary file Image_2.TIF: FIGURE S2 In vivo studies with TAAR1-KO mice and compound 22 on stereotypic counts activity. […] The sum of stereotypic counts was assessed over 60 min after the injection of amphetamine and compound 22 in WT (solid bars) or TAAR1-KO mice (spotted bars). […] The sum of stereotypic counts was assessed over 60 min following the injection in WT (solid bars) or TAAR1-KO mice (dotted bars). […]

Dopamine Transporter = Dopamine Transporter (Homo sapiens, UniProt Q01959); assay: Fluorescent dopamine uptake assay in HEK293 cells stably expressing human HA-DAT; assay type: cell-based; set-up: expressed in transfected cells
Method: Fluorescent dopamine uptake assay kits were purchased from Molecular Devices (Sunnyvale, CA; catalog #: R6138). Stable cells expressing human HA-DAT were seeded on poly-D-lysine treated, black clear-bottom 96-well plates (Corning Catalog #: 3603) at a density of 1 × 10^5 cells/well, and incubated for 24 h prior to the start of the uptake experiment. […] The plates were then incubated for 30 min at 37°C. Following incubation, 100 μL of dye solution was added and fluorescence intensity was measured for 30 min at 37°C using the SpectraMax M3 (Molecular Devices, excitation: 440 nm, emission: 520 nm). The rate of reaction (slope of the curve in the linear range) was taken as the readout for the assay.
Data analyses were performed with Graphpad Prism 5.01 (GraphPad Software, Inc., La Jolla, CA). Linear regression analysis was used to quantify fluorescent dopamine transporter uptake activity. Dose response curves were fitted with non-linear curve fitting. Two-tailed Student’s t-tests or one-way ANOVA analysis with Dunnett’s post hoc correction was used where appropriate to determine differences between data sets.
The ability of compound 22 to directly disrupt uptake activity was assessed with a fluorescent uptake assay.
Error bars represent standard error of mean at N = 3.

Sequence of Dopamine Transporter (Q01959 with tags, fused parts or gaps H193Y/G195Y/DEL197-198/G199V/D200P/S201D/S202Y/G203A): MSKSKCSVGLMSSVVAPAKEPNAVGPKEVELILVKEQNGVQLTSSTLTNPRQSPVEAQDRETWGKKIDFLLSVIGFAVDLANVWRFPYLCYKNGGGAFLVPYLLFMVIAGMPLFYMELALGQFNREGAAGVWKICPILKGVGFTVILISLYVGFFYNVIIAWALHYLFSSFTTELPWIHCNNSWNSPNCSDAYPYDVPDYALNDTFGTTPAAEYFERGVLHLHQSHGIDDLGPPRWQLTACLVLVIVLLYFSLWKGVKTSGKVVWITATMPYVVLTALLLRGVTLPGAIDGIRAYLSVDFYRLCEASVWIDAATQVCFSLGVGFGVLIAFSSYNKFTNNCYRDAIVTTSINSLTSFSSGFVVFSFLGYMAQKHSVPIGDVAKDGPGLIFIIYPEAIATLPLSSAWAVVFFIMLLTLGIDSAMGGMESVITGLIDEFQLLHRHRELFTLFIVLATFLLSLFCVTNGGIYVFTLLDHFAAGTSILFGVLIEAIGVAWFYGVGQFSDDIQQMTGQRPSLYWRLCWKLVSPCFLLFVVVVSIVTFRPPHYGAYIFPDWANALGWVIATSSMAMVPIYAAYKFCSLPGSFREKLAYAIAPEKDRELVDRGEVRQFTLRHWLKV

Clc1ccc(CNCc2ccc(Cn3cncn3)cc2)c(Cl)c1 [compound 22]
potentiation of locomotor stimulating effects of amphetamine (TAAR1-KO mice [1]): 84%
effect on locomotor stimulating effects of cocaine (TAAR1-KO mice [2]): significantly potentiate
stereotypic counts (TAAR1-KO mice [3]): statistically significant increase in stereotypic counts
effect on dopamine uptake activity (Dopamine Transporter; HEK293 cells stably expressing human HA-DAT, increasing doses): no effect on dopamine uptake activity
effect on cocaine dose response inhibition of dopamine uptake (Dopamine Transporter; co-treatment with 1, 10 and 100 μM compound 22): did not alter
